Patent US8568973B2, “Cell-signaling assays” (Molecular Devices, LLC, priority 1999, dated 2013)
Entries after “also recorded” stand apart in the source; their conditions may differ.

Test system: T47D cells
Experiment: Whole-cell cAMP luminescence polarization assay of modulators (FIG. 13)
Format: cell-based
Experimental: • (a) Preparation of 1:75 cAMP antibody working stock. Dilute the 300× cAMP antibody stock 1:75 in cAMP assay buffer (0.05 M HEPES, pH 7.5, 150 mM NaCl, 0.1% bovine gamma globulin) (e.g., by adding 14 μL of the 300× cAMP antibody stock to 1036 μL of cAMP assay buffer). 10 μL of this working stock solution will be added to the assay plate, as indicated in the plate layout in FIG. 9. • (b) Preparation of cAMP tracer working stock. Dilute the 500× cAMP tracer stock 1:125 in cAMP assay buffer (e.g., by adding 10 μL of the 500× cAMP tracer stock to 1240 μL of cAMP assay buffer). 10 μL of this working stock solution will be added to the assay plate, as indicated in the plate layout in FIG. 9. • (c) Preparation of cAMP calibration curve. Dilute the cAMP calibrator 1:25 in cAMP assay buffer (e.g., by adding 10 μL cAMP calibrator to 240 μL cAMP assay buffer) to give 10 μM cAMP calibrator or 400 pmol in final assay. Prepare seven 1:3 serial dilutions to give 3.33, 1.11, 0.37, 0.12, 0.041, 0.014, and 0.005 μM cAMP (133 to 0.125 pmol in final assay). • (d) Preparation of samples. […] A plastic plate cover may be used to prevent possible evaporation, but care should be taken with plastic plate sealers, which may introduce undesirable background fluorescence. • (e) Read plate using a light detection device capable of generating and detecting polarized light. […]

SMILES | cAMP production (cAMP levels) (cultured adherent T47D cells, whole cell preparation, forskolin protocol 20 μM final, 15 minutes at 37° C.) | effect on isoproterenol-stimulated cAMP production (cultured T47D cells, endogenous beta receptors, antagonist added to isoproterenol stimulation)
CC(C)NCC(O)c1ccc(O)c(O)c1 (centres unmarked) [isoproterenol] | stimulates cAMP production; also recorded: stimulated | 
CC(C)NCC(O)COc1cccc2ccccc12 (centres unmarked) [propranolol] |  | reversed; also recorded: inhibited
